According to patent US20230416258A1, “BENZ[…], AND PREPARATION METHOD THEREFOR AND USE THEREOF” (CHINA PHARMACEUTICAL UNIVERSITY, priority 2020, published 2023):
Where two headings read alike, the source gives them in different places.

Experiments:
SD rats [1] = assay: Test for drug-induced disappearance of righting reflex in rats; format: in vivo; details: single rapid bolus via tail vein
From the text: In anesthetic drug experiments, latency generally refers to the time from the start of administration to the loss of consciousness of the subject. The shorter latency is preferred, indicating a rapid onset of action after administration. The duration of anesthesia generally refers to the duration of time from the loss of consciousness to the restoration of consciousness of the subject. The duration of the drug will vary from animal model to animal species. Too long anesthesia may produce adverse cardiovascular and respiratory responses, such as adverse neurological effects to the subject, including sleepiness and dizziness; meanwhile, too short duration of anesthesia may affect the anesthesia effect, causing problems such as increase of anesthesia dosage during the operation.
SD rats (male, 200-280 g) were randomly grouped and subjected to a single administration by rapid bolus via the tail vein. The latency and duration of righting reflex in the rats were recorded.

[2] = In vitro plasma half-life of drug; format: in vitro ADME, SD rats; details: SD rat plasma, 37° C.; for half-life at 0.4 mg/mL: plasma (heparin sodium)
Method: Preparation of plasma: after the SD rats were fasted and kept with water for 12 h, blood was collected through orbital venous plexus. The freshly collected blood was added into a centrifuge tube containing heparin sodium and centrifuged at 5000 rpm for 10 min at 4° C. The supernatant was slowly pipetted and subpackaged. Finally, the collected SD rat plasma was sealed, marked, and stored at −20° C. for later use.
Preparation of target compound sample: the target compound was precisely weighed by an analytical balance and prepared into a stock solution at a concentration of 2 mg/mL (solvent: Vacetone:VTween 80:Vnormal saline=1:1:3) for later use.
Determination of in vitro half-life of target compound sample: 20 μL of test compound stock solution and 80 μL of rat plasma were mixed uniformly. Nine parallel ep tubes were taken, marked as corresponding test tubes of 0 min, 1 min, 2 min, 3 min, 5 min, 10 min, 15 min, 20 min, and 30 min, respectively, and placed in a water bath at 37° C. for incubation for 0 min, 1 min, 2 min, 3 min, 5 min, 10 min, 15 min, 20 min, and 30 min, respectively. 50 μL of mixed solution were taken from the corresponding ep tube at each time point, and […] of acetonitrile was added for precipitating protein. The mixture was vortexed for 10 min using a mixer and centrifuged at 12000 rpm for 15 min. Then, the supernatant was centrifuged at 12000 rpm for 10 min. The optimal detection method for the target compound in the MRM mode was determined using Intellistat software in UPLC-MS/MS, the peak area of the corresponding mass spectrum was integrated, and the plasma half-life of the compound was calculated.

hCMEC/D3 cells = assay: Rate of drug passing through in vitro blood-brain barrier (Transwell); format: in vitro ADME; details: hCMEC/D3 monolayer, compound 0.1 mg/mL
Method: A Transwell device (pore size: 5.0 μm) was placed in a 24-well cell culture well; then hCMEC/D3 cells at 1×10^5 cells/mL were transferred to the upper microwells of Transwell at 150 μL/well, and cell culture medium was added to the lower microwells. After the bottom was covered by a single layer of the cells, the medium in the wells was replaced with EBM-2 complete medium containing 1% FBS, and the cells were cultured in a CO2 incubator for 10 days until a fully dense single layer of the cells was formed. When a fully dense single layer of the cells was formed, the compound at 0.1 mg/mL was added to the lower medium, and after 5 min, the concentration of the compound in the upper medium was measured to calculate the permeability:
Pcompound%=Cupper compound/Clower compound×100%

KM mice = assay: Test for drug-induced disappearance of righting reflex in mice; format: in vivo; details: single rapid bolus via tail vein
How it was run: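 Latency to, and duration of, righting reflex loss were recorded after one fast tail-vein bolus. Animals: randomized female KM mice weighing 18–25 g.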

[3] = test system: GABA-activated Cl− current (GABAA receptor) in HEK 293T cells; assay: Effect of drugs on GABA-activated current in cells by cell patch clamp; format: cell-based; details: for Enhancement percentage Emax for 2 μM GABA current (within 3-30 μM): corresponding concentration 20 μM
Method: Test compounds were dissolved at various concentrations in an extracellular buffer (140 mM NaCl, 4.7 mM KCl, 10 mM HEPES, 2 mM CaCl2), 10 mM glucose, 1 mM MgCl2, pH 7.4). HEK 293T cells were seeded on glass coverslips and cultured in DMEM media at 37° C. with 5% CO2 for 24 h. GABA Cl^− current was subjected to whole cell recording using an HEKA EPC 10USB patch clamp amplifier. 2 μM GABA was used for exciting Cl^− current, with the membrane potential clamped at −60 mV. The cells were treated with the test compound and 2 μM GABA simultaneously, and the induction effect on and Emax of Cl^− current in the same cell were recorded.
Maximum enhancement percentage Emax for 2 μM GABA current and corresponding concentration (μM): 100% for normal humans. The greater the percentage, the lower the corresponding concentration, and the greater the depth of anesthesia.

SD rats [4] = assay: Induction of anesthesia in rats by continuous infusion of drug for 20 min; format: in vivo; details: initial dose 20 mg/kg bolus, maintenance dose 0.2 (mg/kg)/min for 20 min, after infusion completed
Method: SD rats (male, 200-280 g) were randomly grouped and subjected to administration of an initial dose by rapid bolus via the tail vein, followed by a continuous infusion with a maintenance dose for 20 min.
After the infusion was completed, the duration of the righting reflex and the time from wake-up to recovery in rats were recorded.

[5] = read-out: Positive enhancement EC50 (μM) for 2 μM GABA-induced current, −60 mV

| Compound | Latency (SD rats [1]) | half-life at 0.4 mg/mL [2] | In vitro blood-brain barrier, compound permeability at 5 min (hCMEC/D3 cells) | Duration (KM mice; 60 mg/kg) | Latency (KM mice; 60 mg/kg) | EC50 [3, 5] | Enhancement percentage Emax for 2 μM GABA current (within 3-30 μM) ([3]; −60 mV) | Duration of anesthesia (SD rats [4]) | Time from wake-up to recovery (SD rats [4]) | Duration (KM mice; 30 mg/kg) | Latency (KM mice; 30 mg/kg) | Duration (SD rats [1]) | In vitro plasma half-life [2] | EC50 ([3]; 2 μM GABA, −60 mV, read-out: Positive enhancement EC50 (μM) for 2 μM GABA-induced current) |
| --- | --- | --- | --- | --- | --- | --- | --- | --- | --- | --- | --- | --- | --- | --- |
| COC(=O)CC[C@@H]1N=C(c2ccccc2F)c2cc([N+](=O)[O-])ccc2-n2c(SCCN3CCOCC3)nnc21 [Compound 53, methyl (S)-3-(8-nitro-6-(2-fluorophenyl)-1-((2-morpholinoethyl)thio)-4H-benzo[f][1,2,4]triazolo[4,3-a][1,4]diazepin-4-yl)propionate] | 0.18 min | 0.33 min | 69.9% | 9.98 min | 0.42 min | 0.53 µM | 285% (20 μM) | 4.17 min | 13.5 min |  |  |  |  |  |
| COC(=O)CC[C@@H]1N=C(c2ccccc2Cl)c2cc(Br)ccc2-n2c(SCCCN3CCN(CCO)CC3)nnc21 [Compound 97, methyl (S)-3-(8-bromo-6-(2-chlorophenyl)-1-((3-(4-(2-hydroxyethyl)piperazin-1-yl)propyl)thio)-4H-benzo[f][1,2,4]triazolo[4,3-a][1,4]diazepin-4-yl)propionate] | 0.18 min | 0.61 min | 84.6% | 17.07 min | 0.93 min | 0.84 µM | 238% (20 μM) | 6.43 min | 17.4 min |  |  |  |  |  |
| COC(=O)CC[C@@H]1N=C(c2ccccc2F)c2cc(Br)ccc2-n2c(SCCN3CCOCC3)nnc21 [Compound 52, methyl (S)-3-(8-bromo-6-(2-fluorophenyl)-1-((2-morpholinoethyl)thio)-4H-benzo[f][1,2,4]triazolo[4,3-a][1,4]diazepin-4-yl)propionate] | 0.33 min | 0.36 min | 80.1% | 7.22 min | 0.94 min | 0.47 µM | 293% (20 μM) | 6.25 min | 16.2 min | 5.38 min | 1.3 min |  |  |  |
| COC(=O)CC[C@@H]1N=C(c2ccccc2Cl)c2cc(Br)ccc2-n2c(SCCN3CCOCC3)nnc21 [Compound 82, methyl (S)-3-(8-bromo-6-(2-chlorophenyl)-1-((2-morpholinoethyl)thio)-4H-benzo[f][1,2,4]triazolo[4,3-a][1,4]diazepin-4-yl)propionate] | 0.41 min | 0.37 min | 80.1% |  |  | 0.39 µM | 311% (20 μM) | 10.27 min | 20.8 min | 8.37 min | 0.31 min |  |  |  |
| COC(=O)CC[C@@H]1N=C(c2ccccc2F)c2cc(Cl)ccc2-n2c1n[nH]c2=S [Tautomer of compound 1, methyl (S)-3-(8-chloro-6-(2-fluorophenyl)-1-thio-2,4-dihydro-1H-benzo[f][1,2,4]triazolo[4,3-a][1,4]diazepin-4-yl)propionate] | 0.68 min |  | 76.8% |  |  |  | 234% (20 μM) | 3.29 min | 9.6 min | 3.47 min | 0.21 min | 11.03 min | 4.65 min | 0.72 µM |
